In assay [1] the test system is HBV replication. The assay can be described thus: HBV replication inhibition assay in HepDES19 cells (strand-preferential q-PCR). It is filed as cell-based, Hepatitis B virus. The settings on record: for HBV replication inhibition (qualitative): Table 3, qualitative screen at 20 μM; for EC50: Hepatitis B virus, HepDES19, Table 2, qualitative suppression of + and − DNA strands, read-out: EC50 (class symbols); for HBV replication inhibition / activity: HepDES19 cells. The method, then: HBV replication assay. […] Cells were seeded into 6-well plates and incubated in DMEM/F12, 10% fetal bovine serum (FBS), 1% penicillin/streptomycin (P/S) with 1 μg/mL tetracycline. Tetracycline was withdrawn after 24 hours. The test compound was applied to duplicate wells 48 hours later in medium containing a final DMSO concentration of 1%, and medium containing the compound was refreshed daily for the following two days. Cells were harvested and non-encapsidated nucleic acids were digested with micrococcal nuclease (New England Biolabs). HBV DNA was purified from capsids using QIAamp Cador Pathogen Mini Kit (Qiagen) with proteinase K incubation overnight at 37° C. TaqMan PCR was performed for 40 cycles at an annealing temperature of 60° C.
Thirty-nine HID, HPD, flutimide, and related POH compounds (Structures shown in FIG. 3) were screened for their ability to inhibit HBV replication in HepDES19 cells. […] Inhibition was calculated as the amount of plus-polarity DNA relative to the DMSO treated controls.
Briefly, HepDES19 were seeded in 12-well plates at 2×10^5 cells per well in the absence of tetracycline. Test compound was applied to cells 48 hours after removal of tetracycline. […] HBV DNA was purified from capsids using a QIAamp pathogen minikit with proteinase K digestion extended to overnight at 37° C. TaqMan PCR was performed for 40 cycles with an annealing temperature of 60° C.

Assay [2] concerns HSV-1. The assay can be described thus: HSV-1 replication inhibition assay in Vero cells. It is filed as cell-based, herpes simplex virus 1. The settings on record: for log reduction at 5 µM: read-out: HSV-1 suppression (log10 at 5 μM), class symbol. The method, then: Thirty-seven compounds were counter-screened for efficacy against HSV-1 to evaluate specificity of the inhibitors and to help determine if the efficacy against HBV replication may be due to an unsuspected indirect effect on the cells. Vero cells infected with HSV-1 at an MOI of 0.1 were treated with 5 μM of compound for 24 hours. Inhibition was calculated as log 10 suppression of plaque forming units compared with DMSO vehicle control.
Vero cells were maintained DMEM supplemented with 3% newborn calf serum, 3% bovine growth serum, 2 mM L-glutamine, and P/S. Test compounds were applied to the cells in the presence of 0.05% DMSO. The herpes simplex virus 1 (HSV-1) strain used for screening was a de-identified clinical isolate from the Saint Louis University Hospital passaged once in culture.
Compounds and virus were diluted in phosphate buffered saline (PBS) containing 2% newborn calf serum and 2 mM L-glutamine so that the final concentration of compound was 5 μM. The cells were incubated at 37° C. for 1 hour with the virus containing inoculum, then the inoculum was removed and the wells were washed once in PBS. Compound diluted to 5 μM in supplemented DMEM was added and cells were incubated at 37° C. for an additional 23 hours. The plates were then microscopically inspected for cytopathic effect (CPE) or toxicity and then frozen at −80° C. Virus titers for wells with limited CPE compared to DMSO vehicle-treated controls were then determined by plaque assay on Vero cells. Each experiment was repeated at least once.

Assay [3] concerns the target HBV RNaseH (Hepatitis B virus genotype D subtype ayw, UniProt P03156). The settings on record: for Inhibition of HBV RNaseH, Oligonucleotide directed cleavage assay: Table 3, compounds at 100, 60 and 20 μM, compounds 1-91 and 138-140 previously reported (Cai et al., 2014).
The target in assay [4] is T1, human RNaseH1 (Homo sapiens, UniProt O60930).
T1 construct: made in house; host or cells: E. coli
T1 sequence (O60930 1-286): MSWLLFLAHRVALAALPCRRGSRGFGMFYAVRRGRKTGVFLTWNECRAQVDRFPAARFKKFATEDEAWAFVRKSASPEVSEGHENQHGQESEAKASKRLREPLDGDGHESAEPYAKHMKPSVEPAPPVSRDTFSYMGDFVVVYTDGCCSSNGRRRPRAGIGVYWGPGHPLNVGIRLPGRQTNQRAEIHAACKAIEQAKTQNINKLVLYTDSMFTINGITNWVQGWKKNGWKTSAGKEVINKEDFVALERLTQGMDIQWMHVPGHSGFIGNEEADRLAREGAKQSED
The experiment in a line: Oligonucleotide-directed RNA cleavage assay, human RNaseH1. It counts as biochemical. The settings on record: for inhibition of huRNaseH1: compounds at 100, 60 and 20 μM. From the text: RNaseH expression and purification.
Oligonucleotide-directed RNA cleavage assay.

[5] abbreviates: Human alphaherpesvirus 1, 24 h, 5 μM, Vero cells.

Where two headings read alike, the source gives them in different places.

Chain of HBV RNaseH (P03156 671-832): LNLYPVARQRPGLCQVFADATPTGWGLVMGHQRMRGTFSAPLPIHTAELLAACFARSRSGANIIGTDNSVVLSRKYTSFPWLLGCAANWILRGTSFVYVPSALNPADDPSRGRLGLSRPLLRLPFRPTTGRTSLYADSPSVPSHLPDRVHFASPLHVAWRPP

Take `Cc1cc(C2CCCCC2)n(O)c(=O)c1` [Compound 41, Ciclopirox, reference compound]: in assay [1], the “HBV replication inhibition (qualitative)” value is listed as “− (No inhibition detected at 20 μM)”. Also, in assay [2] (5 μM, 24 hours, Vero cells, MOI 0.1, plaque forming units vs DMSO), the “HSV-1 suppression (log10 at 5 μM)” value turned out to be 5.0 log10. In addition, the “Inhibition of HBV RNaseH, Oligonucleotide directed cleavage assay” value (“Inhibition of HBV RNaseH” for short) in assay [3] was “− (No inhibition detected at 100 μM)”.

For `CCOC(=O)C1=CC2C=CC=CC2N(O)C1=O` (stereo not shown) [Compound 42], in assay [1], the “HBV replication inhibition (qualitative)” value was “− (No inhibition detected at 20 μM)”. Also, the log reduction at 5 µM in assay [2] (setting [5]) was less than 1. Also, the “Inhibition of HBV RNaseH” value in assay [3] is given as “− (No inhibition detected at 100 μM)”.

`O=C1C=CC2C=CC=CC2N1O` (stereo not shown) [Compound 43]: the “HBV replication inhibition (qualitative)” value in assay [1] was “− (No inhibition detected at 20 μM)”. Also, the log reduction at 5 µM in assay [2] (setting [5]) was less than 1. Moreover, the “Inhibition of HBV RNaseH” value in assay [3] is given as “− (No inhibition detected at 100 μM)”.

On to `Cc1cc(C)n(O)c(=O)c1C#N` [Compound 44], for which the “HBV replication inhibition (qualitative)” value in assay [1] is listed as “− (No inhibition detected at 20 μM)”. Besides, the log reduction at 5 µM in assay [2] (setting [5]) was less than 1. Besides, the “Inhibition of HBV RNaseH” value in assay [3] is given as “− (No inhibition detected at 100 μM)”.

Regarding `O=C1c2cccc3cccc(c23)C(=O)N1O` [Compound 45], in assay [1], the “HBV replication inhibition (qualitative)” value was “− (No inhibition detected at 20 μM)”. The log reduction at 5 µM in assay [2] (setting [5]) is less than 1. For the same compound, the “Inhibition of HBV RNaseH” value in assay [3] is reported as “− (No inhibition detected at 100 μM)”.

A word on the IC50: it is the concentration that gives 50% inhibition. A high value points to lower potency. One may read the EC50 as the concentration giving half of the maximal effect. In turn, `Cc1ccc(CC2C(=O)N(O)C(=O)c3ccccc32)cc1` (stereo not shown) [Compound 80] gave an IC50 in assay [4] (Table 1, quantitative values) of more than 100 µM. For the same compound, in assay [1], the EC50 was more than 20 µM and the “HBV replication inhibition (qualitative)” value is given as “− (No inhibition detected at 20 μM)”. In addition, the log reduction at 5 µM in assay [2] (setting [5]) was less than 1. Also, the “Inhibition of HBV RNaseH” value in assay [3] is on record as “− (No inhibition detected at 100 μM)”.

Regarding `CCCNC(=O)C1C(=O)N(O)C(=O)c2ccccc21` (stereo not shown) [Compound 82], in assay [4] (Table 1, qualitative inhibition), the “Human RNaseH1” value was “+++ (detectable inhibition at 10 μM)”. In assay [1], the EC50 was more than 20 µM and the “HBV replication inhibition (qualitative)” value is reported as “− (No inhibition detected at 20 μM)”. For the same compound, the log reduction at 5 µM in assay [2] (setting [5]) was less than 1. Further, the “HBV RNaseH” value in assay [3] (Table 1, qualitative inhibition in biochemical assay) was “+/−”. Moreover, the “Inhibition of HBV RNaseH” value in assay [3] was “− (No inhibition detected at 100 μM)”.

On to `O=C1c2ccc3ccccc3c2C(=O)N1O` [Compound 128], for which, in assay [2] (setting [5]), the log reduction at 5 µM was less than 1. Besides, in assay [3], the “Inhibition of HBV RNaseH” value is given as “− (No inhibition detected at 100 μM)”.

With `O=C(O)c1nc(Cl)c2ccccc2c1O` [Compound 132], the “HBV replication inhibition (qualitative)” value in assay [1] is reported as “− (No inhibition detected at 20 μM)”. In addition, the “Inhibition of HBV RNaseH” value in assay [3] is given as “− (No inhibition detected at 100 μM)”.

For `O=C1CCC(=O)N1O` [Compound 139], in assay [1], the “HBV replication inhibition / activity” value was “inactive” and the “HBV replication inhibition (qualitative)” value is given as “− (No inhibition detected at 20 μM)”. Further, the “Inhibition of HBV RNaseH” value in assay [3] was “− (No inhibition detected at 100 μM)”.

Consider `CC1=C(C#N)C(=O)NC(=O)C1Cc1ccc(-c2ccccc2)o1` (stereo not shown) [Compound 140], for which, in assay [1], the “HBV replication inhibition (qualitative)” value is “− (No inhibition detected at 20 μM)”. In addition, in assay [2] (setting [5]), the log reduction at 5 µM was less than 1. Besides, the “Inhibition of HBV RNaseH” value in assay [3] is “− (No inhibition detected at 100 μM)”.

For `CC1CC(=O)N(O)C(CC(C)CC(C)(C)C)C1` (stereo not shown) [Compound 191, Piroctone olamine, reference compound], the “HBV replication inhibition (qualitative)” value in assay [1] is reported as “− (No inhibition detected at 20 μM)”. Also, the “Inhibition of HBV RNaseH” value in assay [3] is recorded as “− (No inhibition detected at 100 μM)”.

For the compound `Oc1nc2ccccc2nc1O` [Compound 198, 2,3-dihydroxy-quinoxaline], the “HBV replication inhibition (qualitative)” value in assay [1] is “− (No inhibition detected at 20 μM)”. Further, in assay [2] (setting [5]), the log reduction at 5 µM was less than 1. The “Inhibition of HBV RNaseH” value in assay [3] is reported as “− (No inhibition detected at 100 μM)”.

In the case of `NN1C(=O)Cc2ccccc2C1=O` [Compound 204], the “inhibition of huRNaseH1” value in assay [4] is on record as “detectably inhibited”. In addition, in assay [1], the “HBV replication inhibition / activity” value was “inactive” and the “HBV replication inhibition (qualitative)” value is recorded as “− (No inhibition detected at 20 μM)”. Besides, the log reduction at 5 µM in assay [2] (setting [5]) was less than 1. For the same compound, in assay [3], the “Inhibition of HBV RNaseH” value is reported as “− (No inhibition detected at 100 μM)”.

With `Nc1cccc(O)n1` [Compound 206], in assay [4], the “inhibition of huRNaseH1” value is recorded as “detectably inhibited”. Also, the “HBV replication inhibition (qualitative)” value in assay [1] is given as “− (No inhibition detected at 20 μM)”. The log reduction at 5 µM in assay [2] (setting [5]) is less than 1. The “Inhibition of HBV RNaseH” value in assay [3] is “− (No inhibition detected at 100 μM)”.

For the compound `O=C1C(=O)N(O)C2CCCCC2N1O` (stereo not shown) [Compound 217], in assay [4], the “inhibition of huRNaseH1” value is given as “detectably inhibited”. Besides, the “HBV replication inhibition (qualitative)” value in assay [1] is recorded as “− (No inhibition detected at 20 μM)”. The log reduction at 5 µM in assay [2] (Human alphaherpesvirus 1, Vero, 24 h) was less than 1. Moreover, the “Inhibition of HBV RNaseH” value in assay [3] was “− (No inhibition detected at 100 μM)”.

As for `O=C1Cn2c(cc3ccccc32)C(=O)N1O` [Compound 236], the “HBV replication inhibition (qualitative)” value in assay [1] was “− (No inhibition detected at 20 μM)”. Moreover, the log reduction at 5 µM in assay [2] (setting [5]) is less than 1. Also, the “Inhibition of HBV RNaseH” value in assay [3] is listed as “− (No inhibition detected at 100 μM)”.

Consider `O=C1Cn2c(cc3cc(Cl)ccc32)C(=O)N1O` [Compound 237], for which the “HBV replication inhibition (qualitative)” value in assay [1] is “− (No inhibition detected at 20 μM)”. In addition, the log reduction at 5 µM in assay [2] (setting [5]) was less than 1. Also, in assay [3], the “Inhibition of HBV RNaseH” value was “− (No inhibition detected at 100 μM)”.

For the compound `COc1ccc2c(c1)cc1n2CC(=O)N(O)C1=O` [Compound 238], the “HBV replication inhibition (qualitative)” value in assay [1] is given as “− (No inhibition detected at 20 μM)”. Also, the log reduction at 5 µM in assay [2] (setting [5]) is less than 1. For the same compound, the “Inhibition of HBV RNaseH” value in assay [3] is listed as “− (No inhibition detected at 100 μM)”.

`O=C1Cn2c(cc3ccccc32)C(=O)N1` [Compound 239]: the “HBV replication inhibition (qualitative)” value in assay [1] is recorded as “− (No inhibition detected at 20 μM)”. Moreover, the log reduction at 5 µM in assay [2] (setting [5]) is less than 1. Further, the “Inhibition of HBV RNaseH” value in assay [3] is reported as “− (No inhibition detected at 100 μM)”.

On to `O=C1Cn2c(cc3cc(O)ccc32)C(=O)N1O` [Compound 240], for which the “inhibition of huRNaseH1” value in assay [4] is on record as “detectably inhibited”. Also, the “HBV replication inhibition (qualitative)” value in assay [1] is recorded as “− (No inhibition detected at 20 μM)”. In assay [2] (setting [5]), the log reduction at 5 µM is less than 1. Further, the “Inhibition of HBV RNaseH” value in assay [3] is listed as “− (No inhibition detected at 100 μM)”.

Take `O=C1Cn2c(cc3cc(F)ccc32)C(=O)N1O` [Compound 241]: the “HBV replication inhibition (qualitative)” value in assay [1] is recorded as “− (No inhibition detected at 20 μM)”. Besides, in assay [2] (setting [5]), the log reduction at 5 µM is less than 1. Further, in assay [3], the “Inhibition of HBV RNaseH” value is listed as “− (No inhibition detected at 100 μM)”.
